Reference: ChEMBL document CHEMBL3301562, “MMV Box screening against Plasmodium falciparum protein kinases and aminoacyl tRNA synthetases”

How the values were obtained:
Format in all cases: functional
Lysine--tRNA ligase = Lysine--tRNA ligase (Plasmodium falciparum (isolate 3D7), UniProt Q8IDJ8); assay: MMV: KRS recombinant Plasmodium falciparum Lysyl-tRNA-synthetase, assay with yeast tRNA, ATP, and lysine and 3 uM MMV malaria box compound, assay read out with kinase glo as % inhibition.
[1] = target: T1, Mitogen-activated protein kinase (Plasmodium falciparum, UniProt Q25917); assay: Final concentrations were 1 uM ATP, 0.5 mM DTT, 1 mM MgCl2, 0.5 mg/mL BSA, and 10 ug/ml MAP2 in a buffer of 50 mM HEPES (pH 7.0). 0.5 mg/mL histone III-S served as the substrate (13); 100 uM AMP-PNP, an ATP analog, was used as a control inhibitor. Incubation time was 4 hours.
T1 sequence (Q25917 whole entry): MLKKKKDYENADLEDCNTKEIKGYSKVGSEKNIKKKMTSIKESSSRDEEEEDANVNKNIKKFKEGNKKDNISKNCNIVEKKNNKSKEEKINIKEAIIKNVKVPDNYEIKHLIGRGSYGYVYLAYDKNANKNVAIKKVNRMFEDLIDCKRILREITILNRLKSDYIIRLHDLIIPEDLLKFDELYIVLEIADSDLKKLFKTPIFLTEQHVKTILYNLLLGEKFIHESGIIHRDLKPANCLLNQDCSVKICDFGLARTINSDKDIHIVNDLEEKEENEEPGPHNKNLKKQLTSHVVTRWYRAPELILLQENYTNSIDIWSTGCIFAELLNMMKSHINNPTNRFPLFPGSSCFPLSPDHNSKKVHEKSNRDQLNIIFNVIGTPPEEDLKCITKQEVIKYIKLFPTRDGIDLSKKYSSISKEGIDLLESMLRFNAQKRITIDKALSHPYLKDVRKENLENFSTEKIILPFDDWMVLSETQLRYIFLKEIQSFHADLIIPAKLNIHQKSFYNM

[2] = target: Calcium-dependent protein kinase 1 (Plasmodium falciparum, UniProt P62344); assay: MMV: CDPK1 Protein kinase inhibition assay using recombinant PfCDPK1, syntide 2 peptide substrate, ATP and KinaseGlo to measure % inhibition at 1 uM MMV box compound.
Chain of Calcium-dependent protein kinase 1 (P62344 whole entry): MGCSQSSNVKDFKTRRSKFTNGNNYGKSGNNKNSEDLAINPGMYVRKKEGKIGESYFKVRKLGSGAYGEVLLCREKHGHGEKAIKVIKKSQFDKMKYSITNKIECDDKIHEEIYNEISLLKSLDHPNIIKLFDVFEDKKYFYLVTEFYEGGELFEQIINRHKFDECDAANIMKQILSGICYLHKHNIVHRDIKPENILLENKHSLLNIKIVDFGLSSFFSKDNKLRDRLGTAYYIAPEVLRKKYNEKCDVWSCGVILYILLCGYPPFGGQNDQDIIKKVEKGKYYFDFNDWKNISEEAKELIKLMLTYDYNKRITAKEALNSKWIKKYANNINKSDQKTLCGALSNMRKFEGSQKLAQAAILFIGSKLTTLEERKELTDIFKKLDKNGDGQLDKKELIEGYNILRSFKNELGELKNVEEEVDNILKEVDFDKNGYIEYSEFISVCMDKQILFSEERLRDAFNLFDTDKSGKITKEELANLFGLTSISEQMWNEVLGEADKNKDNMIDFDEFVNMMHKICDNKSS

[3] = target: T2, Calcium-dependent protein kinase 4 (Plasmodium falciparum (isolate 3D7), UniProt Q8IBS5); assay: MMV: CDPK4 Protein kinase inhibition assay using recombinant PfCDPK4, syntide2 peptide substrate, ATP and KinaseGlo to measure % inhibition at 1 uM MMV box compound.
T2 sequence (Q8IBS5 whole entry): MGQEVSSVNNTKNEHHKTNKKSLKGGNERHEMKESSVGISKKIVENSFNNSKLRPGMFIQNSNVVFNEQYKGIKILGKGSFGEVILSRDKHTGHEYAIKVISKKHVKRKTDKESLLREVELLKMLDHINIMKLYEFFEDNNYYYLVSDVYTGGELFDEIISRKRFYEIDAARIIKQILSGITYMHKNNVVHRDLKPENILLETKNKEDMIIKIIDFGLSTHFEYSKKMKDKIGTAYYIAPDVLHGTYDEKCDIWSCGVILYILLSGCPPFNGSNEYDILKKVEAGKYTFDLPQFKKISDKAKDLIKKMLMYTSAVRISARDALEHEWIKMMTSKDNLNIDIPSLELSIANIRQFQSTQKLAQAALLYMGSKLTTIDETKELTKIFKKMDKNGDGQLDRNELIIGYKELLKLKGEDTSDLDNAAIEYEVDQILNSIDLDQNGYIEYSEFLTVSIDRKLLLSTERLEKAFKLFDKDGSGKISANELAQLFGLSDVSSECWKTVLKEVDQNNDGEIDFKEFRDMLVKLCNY

Proline--tRNA ligase = target: T3, Proline--tRNA ligase (Plasmodium falciparum (isolate 3D7), UniProt Q8I5R7); assay: MMV: ProRS recombinant Plasmodium falciparum Prolyl-tRNA-synthetase, assay with yeast tRNA, ATP, and proline and 3 uM MMV malaria box compound, assay read out with kinase glo as % inhibition.
T3 sequence (Q8I5R7 whole entry): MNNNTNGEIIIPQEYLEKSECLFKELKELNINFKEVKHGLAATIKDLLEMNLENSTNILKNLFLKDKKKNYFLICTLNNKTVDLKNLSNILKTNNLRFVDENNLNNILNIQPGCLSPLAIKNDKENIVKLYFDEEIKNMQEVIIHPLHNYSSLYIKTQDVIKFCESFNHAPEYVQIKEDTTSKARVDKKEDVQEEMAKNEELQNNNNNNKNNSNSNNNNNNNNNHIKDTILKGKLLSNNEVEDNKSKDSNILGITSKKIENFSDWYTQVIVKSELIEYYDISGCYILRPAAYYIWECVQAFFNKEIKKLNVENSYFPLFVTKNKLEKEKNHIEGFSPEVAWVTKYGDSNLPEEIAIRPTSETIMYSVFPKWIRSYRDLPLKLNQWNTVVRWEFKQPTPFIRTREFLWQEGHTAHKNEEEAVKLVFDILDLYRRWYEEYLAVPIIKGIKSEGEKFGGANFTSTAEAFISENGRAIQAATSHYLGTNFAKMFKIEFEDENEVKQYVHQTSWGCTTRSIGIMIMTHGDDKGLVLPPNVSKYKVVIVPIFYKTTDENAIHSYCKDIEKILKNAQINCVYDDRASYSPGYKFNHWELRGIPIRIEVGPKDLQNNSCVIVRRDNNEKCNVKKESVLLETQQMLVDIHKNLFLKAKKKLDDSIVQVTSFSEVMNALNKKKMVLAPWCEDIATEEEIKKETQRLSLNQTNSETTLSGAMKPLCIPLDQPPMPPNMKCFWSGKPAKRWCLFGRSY

[4] = target: T4, Putative uncharacterized protein pk7 (Plasmodium falciparum, UniProt O96214); assay: Final concentrations were 1 uM ATP, 2 mM DTT, 20 mM MgCl2, 2 mM MnCl2, 0.01% BSA, and 6 ug/ml PK7, in a buffer of 20 mM Tris-HCl (pH 7.5). The enzyme itself was the only substrate present (since autophosphorylation occurs); 100 uM 1NA-PP1 was used as a control inhibitor. Incubation time was 3 hours.
T4 sequence (O96214 whole entry): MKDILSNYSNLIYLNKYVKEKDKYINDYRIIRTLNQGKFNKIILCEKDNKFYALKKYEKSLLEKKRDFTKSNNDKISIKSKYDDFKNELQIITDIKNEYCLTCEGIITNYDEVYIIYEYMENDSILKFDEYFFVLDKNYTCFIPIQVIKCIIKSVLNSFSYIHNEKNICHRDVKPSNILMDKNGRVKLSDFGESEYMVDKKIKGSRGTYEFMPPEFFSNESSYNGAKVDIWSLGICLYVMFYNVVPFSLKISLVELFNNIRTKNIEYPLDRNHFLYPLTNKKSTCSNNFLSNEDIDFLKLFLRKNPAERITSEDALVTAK

[5] = target: T5, Cdk-related protein kinase 6 (Plasmodium falciparum, UniProt O77239); assay: Final concentrations were 1.5 uM ATP, 5 mM MnCl2, and 15 ug/ml PK6 in a buffer of 100 mM Tris-HCl (pH 7.5). 50 ug/mL MBP was provided as the substrate; 10 uM staurosporine was used as a control inhibitor. Incubation time was 3 hours and 40 minutes.The catalytic activity of each kinase was considered proportional to ATP consumed, as determined from measurements of residual [ATP] with the luciferase-based reagent Kinase-Glo (Promega) following incubation. Luminescence (proportional to residual [ATP]) was measured on the plate readers FLx800 (BioTek Instruments, Winooski, VT, USA) and MicroBeta2.
T5 sequence (O77239 whole entry): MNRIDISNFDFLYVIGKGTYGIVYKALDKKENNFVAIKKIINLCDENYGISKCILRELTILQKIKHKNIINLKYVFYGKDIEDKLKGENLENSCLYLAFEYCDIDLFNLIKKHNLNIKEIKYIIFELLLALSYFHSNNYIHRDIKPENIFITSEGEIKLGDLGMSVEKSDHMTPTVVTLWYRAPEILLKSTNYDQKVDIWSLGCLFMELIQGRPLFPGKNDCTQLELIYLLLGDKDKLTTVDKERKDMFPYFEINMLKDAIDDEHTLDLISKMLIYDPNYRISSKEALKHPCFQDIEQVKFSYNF

Chain of Lysine--tRNA ligase (Q8IDJ8 whole entry): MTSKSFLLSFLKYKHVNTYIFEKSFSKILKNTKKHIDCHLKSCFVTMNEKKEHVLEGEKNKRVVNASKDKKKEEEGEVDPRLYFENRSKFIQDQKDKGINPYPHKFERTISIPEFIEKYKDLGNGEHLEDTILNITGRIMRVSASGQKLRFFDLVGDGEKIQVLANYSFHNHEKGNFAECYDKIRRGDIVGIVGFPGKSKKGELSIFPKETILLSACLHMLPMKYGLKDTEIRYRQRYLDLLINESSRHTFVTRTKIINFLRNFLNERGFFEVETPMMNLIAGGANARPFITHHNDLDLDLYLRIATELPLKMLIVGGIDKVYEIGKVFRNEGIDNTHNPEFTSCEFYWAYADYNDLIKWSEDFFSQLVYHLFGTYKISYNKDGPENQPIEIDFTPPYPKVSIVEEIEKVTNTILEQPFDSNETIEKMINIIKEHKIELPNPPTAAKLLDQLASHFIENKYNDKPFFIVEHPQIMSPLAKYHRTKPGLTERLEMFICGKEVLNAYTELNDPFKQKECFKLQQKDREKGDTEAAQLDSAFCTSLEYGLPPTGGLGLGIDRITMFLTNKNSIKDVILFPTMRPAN

Row | SMILES | IC50 (Lysine--tRNA ligase) [nM] | IC50 [1] [nM] | IC50 [2] [nM] | IC50 [3] [nM] | IC50 (Proline--tRNA ligase) [nM] | IC50 [4] [nM] | IC50 [5] [nM]
1 | CCOc1cc(CNC(C)C(O)c2ccccc2)cc(Cl)c1OCC (configuration not stated) | > 2500 | > 1000 | > 1000 | > 1000 | > 2500 | > 1000 | > 1000
2 | OC(CNCC1CCCO1)Cn1c2ccc(Cl)cc2c2cc(Cl)ccc21 (configuration not stated) | > 2500 | > 1000 | > 1000 | > 1000 | > 2500 | > 1000 | > 1000
3 | CCn1nc(-c2ccc(C(=O)OC)cc2)nc2c(=O)n(C)c(=O)nc1-2 | > 2500 | > 1000 | > 1000 | > 1000 | > 2500 | > 1000 | > 1000
4 | Cc1cc(NC(=O)c2cccc(C(F)(F)F)c2)n(-c2nc(-c3ccc4c(c3)OCO4)cs2)n1 | > 2500 | > 1000 | > 1000 | > 1000 | > 2500 | > 1000 | > 1000
5 | COc1cccc(C2(C)Nc3ccccc3-c3nc4ccccc4n32)c1 (configuration not stated) | > 2500 | > 1000 | > 1000 | > 1000 | > 2500 | > 1000 | > 1000
6 | CC(C)CNC(=O)c1c(N)n(CCc2ccccc2F)c2nc3ccccc3nc12 | > 2500 | > 1000 | > 1000 | > 1000 | > 2500 | > 1000 | > 1000
7 | CC(C)(C)CC(C)(C)NCC(O)COc1ccc(Cl)cc1Cl (configuration not stated) | > 2500 | > 1000 | > 1000 | > 1000 | > 2500 | > 1000 | > 1000
8 | COCCNCC(O)Cn1c2ccc(Cl)cc2c2cc(Cl)ccc21 (configuration not stated) | > 2500 | > 1000 | > 1000 | > 1000 | > 2500 | > 1000 | > 1000
9 | O=C(NC1CCN(Cc2ccccc2)CC1)c1cc(-c2ccncc2)nc2ccc(Cl)cc12 | > 2500 | > 1000 | > 1000 | > 1000 | > 2500 | > 1000 | > 1000
10 | CC(=O)Nc1nnc(SCc2c(C)cc(C(C)(C)C)cc2C)s1 | > 2500 | > 1000 | > 1000 | > 1000 | > 2500 | > 1000 | > 1000
11 | CCOc1ccc(C2N(C)c3ccccc3N2C)cc1 | > 2500 | > 1000 | > 1000 | > 1000 | > 2500 | > 1000 | > 1000
12 | CCN(Cc1ccccc1)C1CCN(Cc2cc(Br)ccc2O)CC1 | > 2500 | > 1000 | > 1000 | > 1000 | > 2500 | > 1000 | > 1000
13 | CCOc1cccc(C(=O)Nc2ccc(-c3nc4ccccc4[nH]3)cc2)c1 | > 2500 | > 1000 | > 1000 | > 1000 | > 2500 | > 1000 | > 1000
14 | Clc1cc(Br)ccc1-c1ccc(CNCC2CCNCC2)o1 | > 2500 | > 1000 | > 1000 | > 1000 | > 2500 | > 1000 | > 1000
15 | OC(CNC1CCCC1)Cn1c2ccccc2c2ccccc21 (configuration not stated) | > 2500 | > 1000 | > 1000 | > 1000 | > 2500 | > 1000 | > 1000
16 | Clc1ccc2[nH]c3c(NCCCN4CCOCC4)ncnc3c2c1 | > 2500 | > 1000 | > 1000 | > 1000 | > 2500 | > 1000 | > 1000
17 | Oc1c2c(nc3cc(-c4ccccc4)nn13)CCCC2 | > 2500 | > 1000 | > 1000 | > 1000 | > 2500 | > 1000 | > 1000
18 | Cc1cc(N2CCN(C3CCCC3)CC2)n2c(nc3ccccc32)c1C#N | > 2500 | > 1000 | > 1000 | > 1000 | > 2500 | > 1000 | > 1000
19 | CCCCOc1ccc(C(=O)Nc2cc(C)on2)cc1 | > 2500 | > 1000 | > 1000 | > 1000 | > 2500 | > 1000 | > 1000
20 | CCc1ccc(Nc2cc(C)nc3nc(C)nn23)cc1 | > 2500 | > 1000 | > 1000 | > 1000 | > 2500 | > 1000 | > 1000
21 | CCN(CC)S(=O)(=O)c1ccc(-c2csc(Nc3ccc(C)c(C)c3)n2)cc1 | > 2500 | > 1000 | > 1000 | > 1000 | > 2500 | > 1000 | > 1000
